In patent US8269000B2, “Substituted pyrimidine and triazine compounds” (Gruenenthal GmbH, priority 2008, dated 2012):

Columns and labels:
human B1R = target: T1, human B1R (Homo sapiens, UniProt P46663); assay: FLIPR Ca2+ functional study on bradykinin receptor 1 (hB1R CHO K1 cells); format: cell-based; conditions: % inhibition human B1R at 10 μM, read-out: % inh. (hum. B1R) 10 μM
T1 construct: expressed in transfected cells; host or cells: CHO K1 cells
T1 sequence (P46663 1-353): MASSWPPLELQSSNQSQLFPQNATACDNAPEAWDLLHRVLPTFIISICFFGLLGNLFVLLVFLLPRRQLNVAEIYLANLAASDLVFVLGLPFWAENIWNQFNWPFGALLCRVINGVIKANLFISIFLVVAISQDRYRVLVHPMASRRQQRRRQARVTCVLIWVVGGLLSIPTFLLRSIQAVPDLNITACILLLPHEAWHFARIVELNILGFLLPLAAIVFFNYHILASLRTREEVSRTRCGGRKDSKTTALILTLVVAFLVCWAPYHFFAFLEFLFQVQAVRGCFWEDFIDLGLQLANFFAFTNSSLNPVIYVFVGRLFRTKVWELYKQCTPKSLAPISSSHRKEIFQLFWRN
Method: The agonistic or antagonistic activity of substances can be quantified on the bradykinin receptor 1 (B1R) of the species human and rat using ectopically expressing cell lines (CHO K1 cells) and with the aid of a Ca^2+-sensitive dye (Fluo-4) using a fluorescent imaging plate reader (FLIPR). The indication in % activation is based on the Ca^2+ signal after addition of Lys-Des-Arg^9-bradykinin (0.5 nM) or Des-Arg^9-bradykinin (100 nM). Antagonists lead to suppression of the Ca^2+ influx after the addition of the agonist. % Inhibition compared with the maximum achievable inhibition is indicated.
The agonistic or antagonistic activity of substances can be determined on the bradykinin receptor 1 (B1R) of the species human and rat using the following assay. According to this assay, the Ca^2+ influx through the channel is quantified with the aid of a Ca^2+-sensitive dye (Fluo-4 type, Molecular Probes Europe BV, Leiden, Netherlands) using a Fluorescent Imaging Plate Reader (FLIPR, Molecular Devices, Sunnyvale, USA).
Chinese hamster ovary cells (CHO K1 cells) which have been stably transfected with the human B1R gene (hB1R cells) or with the B1R gene of the rat (rB1R cells) are used. For functional studies, the cells are plated out on black 96-well plates having a clear base (BD Biosciences, Heidelberg, Germany or Greiner, Frickenhausen, Germany) in a density of 20,000-35,000 cells/well. The cells are left overnight at 37° C. and with 5% CO2 in culture medium (hB1R cells: Nutrient Mixture Ham's F12, Gibco Invitrogen GmbH, Karlsruhe, Germany or DMEM, Sigma-Aldrich, Taufkirchen, Germany; rB1R cells: D-MEM/F12, Gibco Invitrogen GmbH, Karlsruhe, Germany), with 10 vol.% FBS (fetal bovine serum, Gibco Invitrogen GmbH, Karlsruhe, Germany or PAN Biotech GmbH, Aidenbach, Germany). On the following day, the cells are loaded for 60 minutes at 37° C. with 2.13 μM Fluo-4 (Molecular Probes Europe BV, Leiden, Netherlands) in HBSS buffer (Hank's buffered saline solution, Gibco Invitrogen GmbH, Karlsruhe, Germany) […] (Sigma-Aldrich, Taufkirchen, Germany) and 10 mM HEPES (Sigma-Aldrich, Taufkirchen, Germany). The plates are then washed twice with HBSS buffer, and HBSS buffer additionally containing 0.1% BSA (bovine serum albumin; Sigma-Aldrich, Taufkirchen, Germany), 5.6 mM glucose and 0.05% gelatin (Merck KGaA, Darmstadt, Germany) is added to the plates. After incubation for a further 20 minutes at room temperature, the plates are inserted into the FLIPR for Ca^2+ measurement. Alternatively, washing is carried out with buffer A (15 mM HEPES, 80 mM NaCl, 5 mM KCl, 1.2 mM CaCl2, 0.7 mM MgSO4, 2 g/l glucose, 2.5 mM probenecid) followed by loading with buffer A with added 2.5 μM Fluo-4 and 0.025% Pluronic F127 (Sigma-Aldrich, Taufkirchen, Germany). The cells are then washed twice with buffer A and incubated for 30 minutes at room temperature with buffer A additionally containing 0.05% BSA and 0.05% gelatin and are then inserted into the FLIPR for Ca^2+ measurement. The Ca^2+-dependent fluorescence is measured before and after the addition of substances (λex=488 nm, λem=540 nm). Quantification is carried out by measuring the highest fluorescence intensity (FC, fluorescence counts) over time.
The FLIPR protocol consists of two substance additions. Test substances (10 μM) are first pipetted onto the cells and the Ca^2+ influx is compared with the control (hB1R: Lys-Des-Arg^9-bradykinin>=50 nM; rB1R: Des-Arg^9-bradykinin 10 μM). This gives the activation in %, based on the Ca^2+ signal after addition of Lys-Des-Arg^9-bradykinin (>=50 nM) or Des-Arg^9-bradykinin (10 μM). After 10-20 minutes' incubation, Lys-Des-Arg^9-bradykinin (hB1R) or Des-Arg^9-bradykinin (rB1R) is applied in the concentration of the EC80, and the influx of Ca^2+ is likewise determined. Antagonists lead to suppression of the Ca^2+ influx. The % inhibition compared with the maximum achievable inhibition is calculated. […]

rat B1R = target: T2, rat B1R (Rattus norvegicus, UniProt P97583); assay: FLIPR Ca2+ functional study on bradykinin receptor 1 (rB1R CHO K1 cells); format: cell-based; conditions: for inhibition at 10 µM: CHO-K1, % inhibition rat B1R at 10 μM, read-out: % inh. (rat B1R) 10 μM
T2 construct: expressed in transfected cells; host or cells: CHO K1 cells
T2 sequence (P97583 1-337): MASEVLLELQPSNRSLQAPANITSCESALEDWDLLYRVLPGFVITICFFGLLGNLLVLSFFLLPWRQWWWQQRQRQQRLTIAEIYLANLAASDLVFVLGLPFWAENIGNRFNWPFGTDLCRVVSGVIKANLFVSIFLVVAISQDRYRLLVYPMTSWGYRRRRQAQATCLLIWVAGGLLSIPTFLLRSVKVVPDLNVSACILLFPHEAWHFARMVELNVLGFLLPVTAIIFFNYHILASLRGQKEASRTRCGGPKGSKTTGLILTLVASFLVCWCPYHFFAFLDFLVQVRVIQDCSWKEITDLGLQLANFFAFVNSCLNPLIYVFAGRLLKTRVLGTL
Method in brief: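 CHO K1 cells stably expressing human or rat B1R were loaded with Fluo-4 and read on FLIPR (ex 488/em 540 nm, peak counts). Test compound (10 μM, or a concentration range for IC50) was added first for % activation versus control agonist; after 10-20 min, EC80 Lys-Des-Arg9-bradykinin (human) or Des-Arg9-bradykinin (rat) was added, giving % inhibition of maximum. n=2-3, N≥2.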

SMILES: COc1cc(C)c(S(=O)(=O)N(C)CCOc2nccc(N3CCC(CCN4CCCC4)CC3)n2)c(C)c1 [Example G-001, 4-methoxy-N,2,6-trimethyl-N-[2-[[4-[4-(2-1-pyrrolidinylethyl)-1-piperidinyl]-2-pyrimidinyl]oxy]ethyl]benzenesulfonamide]
- inhibition at 10 µM (human B1R): 84%
- inhibition at 10 µM (rat B1R): 99%

SMILES: COc1cc(C)c(S(=O)(=O)N(CCOc2nccc(N3CCC4(CCC(Oc5ccncc5)CC4)CC3)n2)C2CC2)c(C)c1 [Example G-016, N-cyclopropyl-4-methoxy-2,6-dimethyl-N-[2-[[4-[9-(4-pyridyloxy)-3-azaspiro[5.5]undecan-3-yl]-2-pyrimidinyl]oxy]ethyl]benzenesulfonamide]
- inhibition at 10 µM (human B1R): 96%
- inhibition at 10 µM (rat B1R): 99%

SMILES: COc1cc(C)c(S(=O)(=O)N(C)CCOc2ccnc(N(C)CCN3CCC(c4ccccc4)(N(C)C)CC3)n2)c(C)c1 [Example H-003, N-[2-[[2-[2-(4-dimethylamino-4-phenyl-1-piperidinyl)ethyl-methylamino]-4-pyrimidinyl]oxy]ethyl]-4-methoxy-N,2,6-trimethylbenzenesulfonamide]
- inhibition at 10 µM (human B1R): 90%
- % inh. (rat B1R) 10 μM (rat B1R; % inhibition rat B1R at 10 μM, 10 µM): 71%

SMILES: COc1cc(C)c(S(=O)(=O)N2CCC[C@H]2COc2nccc(N3CCC(CCN4CCCC4)CC3)n2)c(C)c1 [G_CC-016, 2-[[(2S)-1-(4-methoxy-2,6-dimethylphenyl)sulfonyl-2-pyrrolidinyl]methoxy]-4-[4-(2-1-pyrrolidinylethyl)-1-piperidinyl]pyrimidine]
- inhibition at 10 µM (human B1R): 96%
- inhibition at 10 µM (rat B1R): 100%

SMILES: COc1cc(C)c(S(=O)(=O)N2CCCC[C@H]2COc2nccc(N3CCC4(CCN(c5ccncc5)CC4)CC3)n2)c(C)c1 [Example G-026, 3-[2-[[(2S)-1-[(4-methoxy-2,6-dimethyl-phenyl)sulfonyl]-piperidin-2-yl]-methoxy]-pyrimidin-4-yl]-9-pyridin-4-yl-3,9-diazaspiro[5.5]undecane]
- inhibition at 10 µM (human B1R): 98%
- inhibition at 10 µM (rat B1R): 101%

SMILES: O=S(=O)(c1ccccc1C(F)(F)F)N(CCOc1nccc(N2CCC3(CCN(c4ccncc4)CC3)CC2)n1)C1CC1 [Example G-010, N-cyclopropyl-N-[2-[[4-[9-(4-pyridyl)-3,9-diazaspiro[5.5]undecan-3-yl]-2-pyrimidinyl]oxy]ethyl]-2-(trifluoromethyl)benzenesulfonamide]
- inhibition at 10 µM (human B1R): 98%
- inhibition at 10 µM (rat B1R): 89%

SMILES: COc1cc(C)c(S(=O)(=O)N2CCC[C@H]2COc2nccc(N3CCC4(CC3)CCN(c3ccc(F)cc3)C4=O)n2)c(C)c1 [G_CC-048, 3-(4-fluorophenyl)-8-[2-[[(2S)-1-(4-methoxy-2,6-dimethylphenyl)sulfonyl-2-pyrrolidinyl]methoxy]-4-pyrimidinyl]-3,8-diazaspiro[4.5]decan-4-one]
- inhibition at 10 µM (human B1R): 28%
- inhibition at 10 µM (rat B1R): 96%

SMILES: COc1cc(C)c(S(=O)(=O)N(C)CCOc2nccc(N3CCC4(CCN(c5ccncc5)CC4)CC3)n2)c(C)c1 [G_CC-047, 4-methoxy-N,2,6-trimethyl-N-[2-[[4-[3-(4-pyridyl)-3,9-diazaspiro[5.5]undecan-9-yl]-2-pyrimidinyl]oxy]ethyl]benzenesulfonamide]
- inhibition at 10 µM (human B1R): 100%
- inhibition at 10 µM (rat B1R): 99%

SMILES: COc1cc(C)c(S(=O)(=O)N2CCCCC2COc2nccc(N3CCC(CCN4CCCC4)CC3)n2)c(C)c1 (stereo not shown) [G_CC-003, 2-[[1-(4-methoxy-2,6-dimethylphenyl)sulfonyl-2-piperidinyl]methoxy]-4-[4-(2-1-pyrrolidinylethyl)-1-piperidinyl]pyrimidine]
- inhibition at 10 µM (human B1R): 100%
- inhibition at 10 µM (rat B1R): 102%

SMILES: COc1cc(C)c(S(=O)(=O)N(CCCOc2nccc(N3CCC4(CCN(c5ccncc5)CC4)CC3)n2)C2CC2)c(C)c1 [Example G-025, N-cyclopropyl-4-methoxy-2,6-dimethyl-N-[3-[4-(9-pyridin-4-yl-3,9-diazaspiro[5.5]undecan-3-yl)-pyrimidin-2-yl]oxy-propyl]-benzenesulfonic acid amide]
- inhibition at 10 µM (human B1R): 92%
- inhibition at 10 µM (rat B1R): 104%

SMILES: COc1cc(C)c(S(=O)(=O)N2CCCCC2COc2nccc(N3CCC(OCCN4CCCC4)(c4cccnc4)CC3)n2)c(C)c1 (stereo not shown) [Example G-004, 2-[[1-(4-methoxy-2,6-dimethylphenyl)sulfonyl-2-piperidinyl]methoxy]-4-[4-(3-pyridyl)-4-(2-1-pyrrolidinylethoxy)-1-piperidinyl]pyrimidine]
- inhibition at 10 µM (human B1R): 99%
- inhibition at 10 µM (rat B1R): 73%

SMILES: COc1cc(C)c(S(=O)(=O)N(C)CCOc2ccnc(N3CCC4(CCN(c5ccncc5)CC4)CC3)n2)c(C)c1 [H_CC-029, 4-methoxy-N,2,6-trimethyl-N-[2-[[2-[3-(4-pyridyl)-3,9-diazaspiro[5.5]undecan-9-yl]-4-pyrimidinyl]oxy]ethyl]benzenesulfonamide]
- inhibition at 10 µM (human B1R): 92%
- inhibition at 10 µM (rat B1R): 101%

SMILES: COc1cc(C)c(S(=O)(=O)NC2(COc3nccc(N4CCC5(CCN(c6ccncc6)CC5)CC4)n3)CCC2)c(C)c1 [Example G-022, 4-methoxy-2,6-dimethyl-N-[1-[[4-(9-pyridin-4-yl-3,9-diazaspiro[5.5]undecan-3-yl)-pyrimidin-2-yl]oxy-methyl]-cyclobutyl]-benzenesulfonic acid amide]
- inhibition at 10 µM (human B1R): 100%
- inhibition at 10 µM (rat B1R): 103%

SMILES: COc1cc(C)c(S(=O)(=O)N2CCC[C@H]2COc2nccc(N3CCC4(CCN(Cc5ccccc5)C4)C3)n2)c(C)c1 (stereo partly drawn) [G_CC-032, 3-benzyl-7-[2-[[(2S)-1-(4-methoxy-2,6-dimethylphenyl)sulfonyl-2-pyrrolidinyl]methoxy]-4-pyrimidinyl]-3,7-diazaspiro[4.4]nonane]
- inhibition at 10 µM (human B1R): 86%
- inhibition at 10 µM (rat B1R): 105%
